The values below come from patent US20150216182A1, “COMPOSITIONS AND METHODS OF THE ATTRACTION AND REPULSION OF INSECTS” (Olfactor Laboratories, Inc., priority 2012, published 2015).

“Also recorded” adds a separate entry of the source. Read-outs that look alike come from different tables or passages of the source.

Test [1] relates to cpA neurons. The test can be described thus: extracellular single-sensillum electrophysiology: activation of cpA neuronal activity. Conditions: for Class: Table 6, single compounds, increase over baseline cpA neuronal activity.
In test [2] the test system is larvae. Briefly: larvicidal activity assay. The class given is in vivo. The note with it: for pest or weed control at 0.25 %: read-out: % Lethality with 0.25% compound conc.; for pest or weed control at 100 ppm: read-out: % Lethality at 100 ppm. How it is done: A 6-well plate (Corning Life Sciences, Tewksbury, Mass.) is used to test a compound's larvicidal activity. […] After a 24 hour exposure, the number of dead larvae are counted and recorded.
The results are presented in Table 17 as % lethality (the number of dead larvae divided by the total number of larvae).

For test [3], the system named is female mosquitoes. The test can be described thus: whole plant or invertebrate. Conditions: 2 h; for mortality at 200 µg/mL: read-out: % mortality with 0.2 mg/ml; for mortality at 2000 µg/mL: read-out: % mortality with 2 mg/ml.
In test [4] the test system is Aedes aegypti mosquitoes. The test can be described thus: netsphere assay. The class given is in vivo. The note with it: baited BG-Sentinel trap, overnight collection; FIG. 3. How it is done:
The netsphere assay was conducted in a semi-field containment area. The containment area was 1,000 square feet in size and environmental cues such as temperature, humidity, lighting and airflow were controlled to replicate conditions that Aedes aegypti mosquitoes would encounter in the wild. The containment area was conditioned for 2 hours prior to experimentation to allow for equalization of environmental conditions. Fifty female and five male mosquitoes were then released into the chamber and given one hour to acclimate to the environment. Following this, a BG-Sentinel trap (Biogents AG, Regensburg, Germany) was baited with either cyclopentanone, 2-pentanone or 2,4-lutidine and placed in the chamber in the presence of a non-baited BG-Sentinel (as a negative control for trap attraction). The collection was allowed to proceed overnight during which lighting conditions in the chamber were set to mimic those of starlight. The following day, mosquitoes caught in the trap were frozen at −20° C. and counted. These counts were compared to control experiments where CO2 from a tank, at a flow rate of 250 ml/min, was used as bait.

Test [5] relates to bed bugs (Cimex lectularius). Briefly: bed bug repellency assay. Conditions: compound or combination on filter paper harborage, ten bed bugs. The format is in vivo. Put shortly:
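Ten Cimex lectularius per talc-lined petri dish chose between folded filter-paper harborages treated with isopropyl alcohol alone or compound in isopropyl alcohol […], dried before use. Bugs moved freely 5 min; occupancy beneath each tent recorded, with a solvent-only pairing as control.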

Test [6] concerns Aedes aegypti. Briefly: landing assay. The class given is in vivo. The note with it: mesh treated with 1% in acetone, FIG. 2; for number of landings: 5 minute time course. The text has this:
Behavior assays were developed to aid in the evaluation of compounds and compositions of the present invention. These assays include the landing assay and the netsphere assay. These assays were utilized to determine the effectiveness of said compounds and compositions with regard to attracting or repelling mosquitoes of the species Aedes aegypti. Due to the highly conserved nature of the carbon dioxide receptor across the order Diptera, the results obtained for Aedes aegypti are likely to be intuitive with regard to other members of the mosquito family Culicidae as well as with regard to other dipteran family members.
The landing assay is an assay used to test for attraction toward human skin. A human gloved hand with an opening cutout protected by 2 layers of mesh was inserted into a 12×12×12 inch cage of female mosquitoes. The first layer of mesh was used to protect the human from chemical contact as well as mosquito contact. A second layer of mesh was treated with a chemical compound or composition that had been dissolved at a concentration of 1% in acetone and allowed to dry on said mesh for three minutes. This second layer of mesh was placed on top of the first mesh layer. The two mesh layers were separated by outer magnetic strips to hold the layers in place on the glove. This experimental design allows the test subjects, starved female mosquitoes, to be exposed to human skin odors as well as the compound or composition concurrently. The cage contained 30 female and 3 male mosquitoes. The landing of mosquitoes on the treated surface was videotaped over a 5 minute time course and the number of landings during that time period was recorded. Mesh treated with acetone alone was used as a negative control. This experiment was done in triplicate for each compound or composition tested. The results from one such experiment are pictured in FIG. 2.

For test [7], the system named is bed bugs. The test can be described thus: bed bug luring assay. The note with it: cottonball with 100 microliters solution, total 100 mg compound(s), 10 bed bugs, overnight. The class given is in vivo. How it is done: Assays were conducted to measure the ability of compounds and compound combinations to attract bed bugs. A testing arena habitat comprising a small plastic container was placed inside of a larger, secondary container. The top half inch was removed from two bathroom sized solo cups and each cup was placed on opposite sides of the testing arena habitat, one inch away from the wall. Each outer part of the cup was textured using sandpaper, as bed bugs cannot climb smooth surfaces. A paper towel was used to line the floor of the testing arena habitat. The top, removed portion of one of the solo cups was placed mouth side down in the center of the arena. In one of the cups, a cottonball was placed and treated with 100 microliters of compound or compound combination solution [comprising a total of 100 mg of compound(s).] 10 bed bugs were placed within the center cut off cup top and the testing arena habitat was covered and placed within a dark, climate controlled room overnight. The next day, the number of bed bugs that crawled into the baited cup were recorded and the % attractancy was calculated as the percentage of bugs that crawled into the baited cup as compared to the total number of bed bugs. In the Table, “Att” refers to attractancy and “Cmpd” refers to compound.

Where [8] appears, read: 0.25% compound, 24 hour exposure, dead larvae / total larvae.
[9] abbreviates: 100 ppm compound, 24 hour exposure, dead larvae / total larvae.

Consider `Cc1ccnc(C)c1` [OLI0001, 2,4-lutidine], for which the “effect on CO2-receptor activity (FIG. 1)” value in test [1] (1% concentration in paraffin oil) is “activator”. For the same compound, the Class result in test [1] is reported as “Strong Activator (strong activators yield an increase in activity that is >60 spk/sec over baseline neuronal activity)”. Further, the “activator class of single compound” value in test [1] (single compound) is on record as “strong activator (spike rate of 60-100 spk/sec over the baseline activity of the neuron)”. Besides, the pest or weed control at 0.25 % in test [2] (setting [8]) is 100%. Moreover, the pest or weed control at 100 ppm in test [2] (setting [9]) was 0%. In test [3], the mortality at 200 µg/mL turned out to be 0% and the mortality at 2000 µg/mL is 0%. Besides, the “behaviour in netsphere assay (attractant or repellent)” value (from here on “behaviour in netsphere assay”) in test [4] was “acted as a repellent”. The “% Rep (bed bug repellency)” value in test [5] is 39%.

With `CCCC(C)=O` [OLI0018, 2-pentanone], in test [6], the number of landings is reported as 37 landings and the “behaviour in landing assay (lure or repellent)” value is listed as “act as lures”. In test [1], the Class result was “Moderate Activator (Moderate activators yield an increase in neuronal activity that is between 40 and 60 spk/sec over baseline neuronal activity)”. The “Comp A Class” value in test [1] (Table 9, component A tested individually) is on record as “Mod”. Besides, the “Comp B Class” value in test [1] (Table 9, component B tested individually) is “Mod”. In test [1] (Table 15, single component alone, Mod Actv), the “Class B (activator class of the individual component)” value is on record as “Mod”. In test [2] (24 h), the pest or weed control at 100 ppm is 0% and the pest or weed control at 0.25 % amounted to 0%. The “% Att (bed bug attractancy)” value in test [7] was 30%. For the same compound, in test [3], the mortality at 200 µg/mL was determined as 0% and the mortality at 2000 µg/mL was 0%. Moreover, the “behaviour in netsphere assay” value in test [4] is recorded as “act as attractants; also recorded: attract mosquitoes”.

Consider `O=C1CCCC1` [OLI0008, cyclopentanone], for which, in test [6], the number of landings was 39 landings and the “behaviour in landing assay (lure or repellent)” value is listed as “act as lures”. The Class entry in test [1] was “Strong Activator (strong activators yield an increase in activity that is >60 spk/sec over baseline neuronal activity)”. Further, the pest or weed control at 0.25 % in test [2] (setting [8]) worked out at 85%. For the same compound, the pest or weed control at 100 ppm in test [2] (setting [9]) was found to be 0%. Further, in test [7], the “% Att (bed bug attractancy)” value is given as 50%. In test [3], the mortality at 200 µg/mL came to 0% and the mortality at 2000 µg/mL is 0%. For the same compound, the “behaviour in netsphere assay” value in test [4] is given as “act as attractants; also recorded: attract mosquitoes”.
